Measured values: patent publication US20080064726A1, “Pyrrolidine Derivatives” (priority 2004, published 2008)
Like-named read-outs stand apart in the source and are kept apart here.

Tests used:
plasma DPP-IV activity = molecular target: T1, plasma DPP-IV activity (Mus musculus, UniProt P28843); test: Test for DPP-IV inhibiting activity duration in mice (plasma DPP-IV activity after oral administration); type: in vivo; settings: male ICR mice, 10 mg/kg oral
T1 construct: from tissue; host or cells: plasma of male ICR mice after oral dosing
T1 sequence (P28843 38-760 limits assumed): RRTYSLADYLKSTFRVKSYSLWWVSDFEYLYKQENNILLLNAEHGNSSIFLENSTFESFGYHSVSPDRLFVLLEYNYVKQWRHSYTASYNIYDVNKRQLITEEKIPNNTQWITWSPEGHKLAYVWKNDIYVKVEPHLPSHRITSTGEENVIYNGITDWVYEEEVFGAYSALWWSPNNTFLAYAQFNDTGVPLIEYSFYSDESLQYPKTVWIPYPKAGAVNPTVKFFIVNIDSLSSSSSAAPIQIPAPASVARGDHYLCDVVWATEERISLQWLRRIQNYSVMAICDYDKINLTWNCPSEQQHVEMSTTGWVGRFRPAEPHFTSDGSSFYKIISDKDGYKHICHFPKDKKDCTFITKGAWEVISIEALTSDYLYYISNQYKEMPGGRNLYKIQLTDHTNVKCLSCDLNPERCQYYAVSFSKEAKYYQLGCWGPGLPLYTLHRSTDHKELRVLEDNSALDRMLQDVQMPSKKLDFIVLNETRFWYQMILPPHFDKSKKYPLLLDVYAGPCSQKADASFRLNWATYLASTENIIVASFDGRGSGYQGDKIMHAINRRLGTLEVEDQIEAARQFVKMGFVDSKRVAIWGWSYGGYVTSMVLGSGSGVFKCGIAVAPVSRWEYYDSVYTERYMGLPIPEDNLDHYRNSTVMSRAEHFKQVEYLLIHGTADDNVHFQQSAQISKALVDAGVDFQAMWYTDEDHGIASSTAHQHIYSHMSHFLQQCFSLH
Experimental: Male ICR mice (Nippon SLC) were grouped into a test group and a control group of 5 subjects each. A test compound (10 mg/kg) was dissolved in purified water, and orally administered. Purified water alone was orally administered to the mice of the control group. One half and 12 hours after the administration, the blood was collected from each mouse through the orbital venous plexus thereof. The collected blood was immediately centrifuged to isolate the plasma, and the DPP-IV activity of the plasma was measured.
The process of plasma DPP-IV activity determination was as follows: The reaction was performed in a 96-well plate. 5 μl of the collected plasma was added to an aqueous solution (95 μl/well) comprises 25 mM Tris-HCl, 140 mM sodium chloride, 10 mM potassium-chloride, 1% bovine serum albumin, and 0.01 mM Gly-Pro-AMC (Bachem), and incubated at room temperature for 20 minutes. The fluorescence intensity (excitation 355 nm/emission 460 nm) of each well was measured (ARVO, Perkin Elmer).
The fluorescent intensity of the well, to which was added the plasma collected from the control group, was 100%. Based on it, the DPP-IV activity of the plasma collected from the test compound administered mice was calculated, and the activity difference between the control group and the test group was obtained. This indicated the inhibition in the test group.

[1] = PK test in cynomolgus monkey; type: in vivo; settings: male cynomolgus monkeys; for BA, compound measured = compound tested: oral 3 mg/kg vs intravenous 1 mg/kg, monohydrochloride
Experimental: Male cynomolgus monkeys of four year old (K. K. Cary; the country of origin: Vietnam) were fasted for 16 hours before administration (feed was given after 4 hours from administration), a test compound dissolved in distilled water was orally administered at a dose of 3 mg/kg and blood was collected from forearm cephalic vein after 0.25, 0.5, 1, 2, 4, 8 and 24 hours from administration of the compound. In addition, cynomolgus monkeys to which no drug was administered for 7 days after the oral administration were fasted during 16 hours before administration (feed was given after 4 hours from administration), a test compound dissolved in distilled water was administered at the dose of 1 mg/kg from forearm cephalic vein and blood was collected from the forearm cephalic vein after 0.1, 0.25, 0.5, 1, 2, 4, 8 and 24 hours from administration of the compound. For each of the administrations, three animals were used. Plasma was collected by centrifugal separation of the blood obtained by such a blood collection and concentration of the compound in the plasma was measured by LC/MS/MS (2695, Waters and TSQ Quantum, ThermoFinnigan).

[2] = molecular target: T2, DPP-IV purified from pig kidney (Sus scrofa, UniProt P22411); test: Test for determination of DPP-IV inhibitory activity (Gly-Pro-AMC fluorescence); type: biochemical; settings: room temperature, 60 minutes, 0.05 mM Gly-Pro-AMC
T2 construct: DPP-rIV purified from pig kidney (Sigma); purchased Sigma; host or cells: pig kidney tissue
T2 sequence (P22411 whole entry): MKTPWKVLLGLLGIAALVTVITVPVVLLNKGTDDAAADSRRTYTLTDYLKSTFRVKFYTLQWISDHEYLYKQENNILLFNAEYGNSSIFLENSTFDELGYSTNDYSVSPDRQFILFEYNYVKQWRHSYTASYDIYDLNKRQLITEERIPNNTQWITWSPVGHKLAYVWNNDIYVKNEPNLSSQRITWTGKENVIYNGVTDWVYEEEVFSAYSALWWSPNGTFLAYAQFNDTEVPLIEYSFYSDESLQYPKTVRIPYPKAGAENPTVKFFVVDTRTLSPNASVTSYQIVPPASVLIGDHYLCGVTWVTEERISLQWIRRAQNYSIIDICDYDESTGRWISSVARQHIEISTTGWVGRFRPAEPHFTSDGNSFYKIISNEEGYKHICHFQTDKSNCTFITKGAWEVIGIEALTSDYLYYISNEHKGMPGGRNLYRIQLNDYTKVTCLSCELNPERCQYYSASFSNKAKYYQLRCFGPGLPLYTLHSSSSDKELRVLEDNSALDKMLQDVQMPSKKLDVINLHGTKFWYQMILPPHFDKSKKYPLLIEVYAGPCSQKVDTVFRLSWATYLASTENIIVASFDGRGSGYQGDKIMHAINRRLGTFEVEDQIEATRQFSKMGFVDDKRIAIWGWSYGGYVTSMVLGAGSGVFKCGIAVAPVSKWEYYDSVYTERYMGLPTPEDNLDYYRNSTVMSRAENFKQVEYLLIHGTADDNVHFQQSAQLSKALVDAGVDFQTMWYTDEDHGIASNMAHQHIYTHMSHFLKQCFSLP
Experimental: Procedure of DPP-IV activity measurement is as follows. The reaction was performed in a 96-well plate.
Reaction solutions (100 μl/well) obtained by adding a test substance at various concentrations to a solution containing 50 mM of Tris HCl, 150 mM of sodium chloride, a 0.1% triton X-100, 0.3 mU/mI of DPP-rIV purified from pig kidney (Sigma), and 0.05 mM of Gly-Pro-AMC (Bachem) were incubated at a room temperature for 60 minutes, and then fluorescence intensities (Excitation: 355 nm, Emission: 460 nm) of the reaction solutions were measured (ARVO, Perkin Elmer). The data of 3 Wells under the same conditions were averaged.
The inhibition in the test group, relative to the solvent-added group was calculated, and the IC50 value thereof was obtained through logistic analysis.

PK test in rats = type: in vivo; settings: for BA, compound measured = compound tested / AUC(0-inf): male SD rats; for BA, compound measured = compound tested: oral 3 mg/kg vs intravenous 1 mg/kg; for AUC(0-inf): rat, oral 3 mg/kg, plasma, read-out: AUC0→∞, compound measured = compound tested
Experimental: Each three animals were used for each point. Plasma was collected from the blood obtained by such a blood collection and concentration of the compound in plasma was measured using LC/MS/MS (2695, Waters and TSQ Quantum, ThermoFinnigan).
On the basis of concentration of the compound in the plasma determined by the measurement, an area under curve (AUC) of the drug concentration in plasma vs. time was calculated and, from the ratio of AUC by oral administration to AUC by intravenous injection, bioavailability (BA) was calculated. With regard to the BA value by administration of the compound of the present invention, each of concentrations in plasma of the compound X and the compound of the present invention was calculated.

[3] = 0.5 hour, read-out: Inhibitory Rate after 0.5 Hour from Administration
[4] = 12 hours, read-out: Inhibitory Rate after 12 Hours from Administration

SMILES | inhibition at 10 mg/kg (plasma DPP-IV activity; [3]) | inhibition at 10 mg/kg (plasma DPP-IV activity; [4]) | AUC(0-inf) ([1]; cynomolgus monkey, oral 3 mg/kg, plasma, read-out: AUC0→∞, compound measured = compound tested) | BA, compound measured = compound tested ([1]; listed as compound X) | BA, compound measured = compound tested [1] | IC50 [2] | BA, compound measured = compound tested (PK test in rats) | AUC(0-inf) (PK test in rats) | AUC0→∞, compound measured = compound tested ([1]; oral 3 mg/kg, plasma) | Increase of AUC (sum of tested compound and compound X in plasma) compared with AUC when compound X was administered (PK test in rats; rats, oral administration)
COCC(=O)N1CCC(NCC(=O)N2CCC[C@H]2C#N)CC1 [Compound Y] | 90% | 33% | – | – | – | – | – | – | – | –
CC1(NCC(=O)N2C[C@@H](F)C[C@H]2C#N)CCN(C(=O)CO)CC1.Cl [Compound X, (2S,4S)-4-fluoro-1-{[(1-glycoloyl-4-methylpiperidin-4-yl)amino]acetyl}pyrrolidine-2-carbonitrile monohydrochloride] | – | – | 0.278 ± 0.104 µg·h/mL | 13% | 13 ± 5% | 0.015 µM | 16% | 0.138 µg·h/mL | – | –
CC(=O)OCC(=O)N1CCC(C)(NCC(=O)N2C[C@@H](F)C[C@H]2C#N)CC1 [Example 1, 2-[4-({2-[(2S,4S)-2-cyano-4-fluoropyrrolidin-1-yl]-2-oxoethyl}amino)-4-methylpiperdin-1-yl]-2-oxoethyl acetate monofumarate] | 95% | 84% | – | – | – | 0.015 µM | 77% | 0.043 µg·h/mL | not detected | about fourfold
